Measured values: patent publication US20250312469A1 (CANGET BIOTEKPHARMA, priority 2024, published 2025)
Marks after values point to notes of the source that are not given here.

Tests used:
CRPC LAPC9 tumors = assay: LAPC9 CRPC tumor model; format: in vivo, SCID mice; conditions: 8 mg/kg orally once per week, 2 times
[1] = Rat toxicology/MTD, non-clinically compatible FL118 HPMC suspension (Covance); conditions: for % BW Change (Day 4) / BW Change (Day 4) / Mean body weight Day 1 / Mean body weight Day 4: 3.3 mg/kg/dose
Source text: Twenty male and 20 female Hsd: Sprague Dawley®SDR rats were received from Envigo RMS, Inc. (Indianapolis, Indiana). Animals were acclimated to the test facility for 7 days prior to initiation.
Prior to group assignment, animals were excluded from the selection pool/sex to produce minimal variation. Animals were assigned to the study using a computerized procedure designed to achieve body weight balance with respect to group assignment with the following experimental design.
Doses were based on the most recently recorded scheduled body weight. Animals were checked twice daily (a.m. and p.m.) for mortality, abnormalities, and signs of pain or distress. Cage-side observations were conducted for each animal once daily during the dosing phase, except on days when detailed observations were conducted. Abnormal findings were recorded. Detailed observations were conducted for each animal once during the pre-dose phase, and on Days 1, 4 and 8 (prior to dosing, as applicable) of the dosing phase. Detailed observations were also collected for each animal on days of scheduled sacrifice (all surviving animals). On each day of dosing, cage-side observations were conducted for each animal approximately 1, 4, and 24 hours postdose. Postdose observations were based on the time dosing was completed for each group/sex. Body weights were recorded once during the pre-dose phase, and on Days 1, 4, and 8 (prior to dosing, as applicable) of the dosing phase. The amount of food consumed by each cage of was recorded Days 1 to 4, Days 4 to 8, and Days 8 to 9. Blood samples for hematology, coagulation, and clinical chemistry were collected from fasted toxicity animals via a jugular vein. Blood samples were collected on the day of scheduled sacrifice. […] The anticoagulants were sodium citrate for coagulation tests and potassium EDTA for hematology tests. Samples for clinical chemistry were collected without anticoagulant.
On Day 10 of the dosing phase, all surviving animals, having been fasted overnight, were anesthetized via isoflurane inhalation, exsanguinated, and necropsied. Terminal body weights were recorded for animals sacrificed at a scheduled interval. A macroscopic examination of the external features of the carcass; external body orifices; abdominal, thoracic, and cranial cavities; organs; and tissues was performed. Organ weights were recorded at the scheduled sacrifice. Paired organs were weighed together. Bone marrow smears (two slides) were prepared from the femur of each animal.
Various models of calculators, computers, and computer programs were used to analyze data in this study. Values in some tables (e.g., means, standard deviations, or individual values) may differ slightly from those in other tables, from individually calculated data, or from statistical analysis data, because different models round off or truncate numbers differently. However, neither the integrity nor the interpretation of the data was affected by these differences.
Data for each sex were analyzed separately; only data collected on or after the first day of dosing were analyzed statistically. Analysis of variance (ANOVA) and pairwise comparisons were used to analyze absolute body weight, Body weight change and continuous clinical pathology values. Levene's test was done to test for equality of variances between groups.

in vivo = conditions: SCID, mouse, iv
[2] = Rat toxicology/MTD, limited numbers, FL118-HPβCD complex powder suspension (Roswell Park); conditions: for MTD at 50 days: Sprague-Dawley, rat, in vivo, po, conservative MTD; for BASO / EOS / HCT / HGB / LYM / MCH / MCHC / MCV / MONO / MPV / NEUT / PDW / PLT / RBC / RDW-SD / RET / WBC / ALB / ALP / ALT / AMYL / BUN / CHOL / CREA / Ca / GLU / Na / PHOS / TBIL / TP: rats, oral; for ALB / ALP / ALT / AMYL / BUN / CHOL / CREA / Ca / GLU / Na / PHOS / TBIL / TP: serum

With `CCC1(O)C(=O)OCc2c1cc1n(c2=O)Cc2cc3cc4c(cc3nc2-1)OCO4` (stereo not drawn) [FL118] the antitumor efficacy (CRPC LAPC9 tumors) was “sensitive to FL118”, the “% BW Change (Day 4)” value ([1]; Female) was −14% and the “BW Change (Day 4)” value ([1]; Female) was −26* g. For the same compound, the “Mean body weight Day 1” value ([1]; Female) was 192 g, the “Mean body weight Day 4” value ([1]; Female) was 168* g and the “% BW Change (Day 4)” value ([1]; Male) was −12%. For the same compound, the “BW Change (Day 4)” value ([1]; Male) was −25* g, the “Mean body weight Day 1” value ([1]; Male) was 207 g and the “Mean body weight Day 4” value ([1]; Male) was 183* g. For the same compound, the “highest non-severely toxic dose (HNSTD)” value ([1]; oral, day 1 and day 8) was 1.65 mg/kg/dose, the Tmax (in vivo; FaDu tumor) was 10 min and the half-life (in vivo; FaDu tumor) was 411 min. For the same compound, the Tmax (in vivo; SW620 tumor) was 10 min, the half-life (in vivo; SW620 tumor) was 765 min and the Tmax (in vivo; plasma) was 10 min. It also gave a Vd (in vivo; plasma) of 36.8 L/kg, a clearance (in vivo; plasma) of 238 mL/min/kg and a half-life (in vivo; plasma) of 107 min. The gross pathology ([2]; all doses) was “no obvious FL118-related gross pathology macroscopic findings”, the “clinical signs, female rats” value ([2]; all treatment groups) was “no serious adverse clinical signs” and the “weight loss, female rats” value ([2]; all treatment groups) was no more than 10%. For the same compound, the MTD at 50 days ([2]; female, female rats) was no more than 4.77 mg/kg, the MTD at 50 days ([2]; male, male rats) was no less than 2.44 mg/kg and the BASO ([2]; 1.56 mg/kg) was 0.01-0.02 K/μL. For the same compound, the EOS ([2]; 1.56 mg/kg) was 0.04-0.07 K/μL, the HCT ([2]; 1.56 mg/kg) was 44.5-50.5% and the HGB ([2]; 1.56 mg/kg) was 14.2 to 16 g/dL. The LYM ([2]; 1.56 mg/kg) was 5.56-8.7 K/μL, the MCH ([2]; 1.56 mg/kg) was 17.8 to 18.6 pg and the MCHC ([2]; 1.56 mg/kg) was 31.2 to 32.1 g/dL. The MCV ([2]; 1.56 mg/kg) was 56.1 to 58.6 fL, the MONO ([2]; 1.56 mg/kg) was 0.19-0.58 K/μL and the MPV ([2]; 1.56 mg/kg) was 7.9 to 8.1 fL. For the same compound, the NEUT ([2]; 1.56 mg/kg) was 0.38-1.37 K/μL, the PDW ([2]; 1.56 mg/kg) was 9.2 to 10 fL and the PLT ([2]; 1.56 mg/kg) was 864-1070 K/μL. For the same compound, the RBC ([2]; 1.56 mg/kg) was 7.67-8.73 M/μL, the RDW-SD ([2]; 1.56 mg/kg) was 30 to 33.7 fL and the RET ([2]; 1.56 mg/kg) was 401-524 K/μL. For the same compound, the WBC ([2]; 1.56 mg/kg) was 6.5-10.7 K/μL, the BASO ([2]; 3.05 mg/kg) was 0.01-0.04 K/μL and the EOS ([2]; 3.05 mg/kg) was 0.02-0.1 K/μL. For the same compound, the HCT ([2]; 3.05 mg/kg) was 34.6-46.5%, the HGB ([2]; 3.05 mg/kg) was 11.8 to 14.8 g/dL and the LYM ([2]; 3.05 mg/kg) was 4.83-6.03 K/μL. For the same compound, the MCH ([2]; 3.05 mg/kg) was 18.4 to 19.2 pg, the MCHC ([2]; 3.05 mg/kg) was 31.8 to 34.1 g/dL and the MCV ([2]; 3.05 mg/kg) was 55.6 to 57.8 fL. For the same compound, the MONO ([2]; 3.05 mg/kg) was 0.09-0.43 K/μL, the MPV ([2]; 3.05 mg/kg) was 7.6 to 7.8 fL and the NEUT ([2]; 3.05 mg/kg) was 0.92-1.42 K/μL. For the same compound, the PDW ([2]; 3.05 mg/kg) was 9.4 to 9.9 fL, the PLT ([2]; 3.05 mg/kg) was 665-1259 K/μL and the RBC ([2]; 3.05 mg/kg) was 6.15-8.04 M/μL. The RDW-SD ([2]; 3.05 mg/kg) was 29.3 to 35.3 fL, the RET ([2]; 3.05 mg/kg) was 208-625 K/μL and the WBC ([2]; 3.05 mg/kg) was 6.0-7.9 K/μL. For the same compound, the ALB ([2]; 1.56 mg/kg) was 3.4 to 4.4 g/dL, the ALP ([2]; 1.56 mg/kg) was 111-239 U/L and the ALT ([2]; 1.56 mg/kg) was 63-134 U/L. For the same compound, the AMYL ([2]; 1.56 mg/kg) was 1547-2358. U/L, the BUN ([2]; 1.56 mg/kg) was 15 to 20 mg/dL and the CHOL ([2]; 1.56 mg/kg) was 89 to 111 mg/dL. For the same compound, the CREA ([2]; 1.56 mg/kg) was 0.1 to 0.5 mg/dL, the Ca ([2]; 1.56 mg/kg) was 11.2 to 11.6 mg/dL and the GLU ([2]; 1.56 mg/kg) was 206 to 296 mg/dL. For the same compound, the Na ([2]; 1.56 mg/kg) was 143 to 154 mmol/L, the PHOS ([2]; 1.56 mg/kg) was 10.8 to 13.2 mg/dL and the TBIL ([2]; 1.56 mg/kg) was 0.2 to 0.8 mg/dL. For the same compound, the TP ([2]; 1.56 mg/kg) was 6.2 to 6.7 g/dL, the ALB ([2]; 3.05 mg/kg) was 3.6 to 4.3 g/dL and the ALP ([2]; 3.05 mg/kg) was 37-168 U/L. For the same compound, the ALT ([2]; 3.05 mg/kg) was 85-111 U/L, the AMYL ([2]; 3.05 mg/kg) was 1614-2162. U/L and the BUN ([2]; 3.05 mg/kg) was 15 to 21 mg/dL. For the same compound, the CHOL ([2]; 3.05 mg/kg) was 38 to 87 mg/dL, the CREA ([2]; 3.05 mg/kg) was 0.1 to 0.5 mg/dL and the Ca ([2]; 3.05 mg/kg) was 11.3 to 11.9 mg/dL. For the same compound, the GLU ([2]; 3.05 mg/kg) was 282 to 438 mg/dL, the Na ([2]; 3.05 mg/kg) was 147 to 154 mmol/L and the PHOS ([2]; 3.05 mg/kg) was 4.1 to 10.5 mg/dL. For the same compound, the TBIL ([2]; 3.05 mg/kg) was 0.3 to 0.7 mg/dL, the TP ([2]; 3.05 mg/kg) was 5.4 to 6.3 g/dL and the mortality ([2]; weekly oral gavage, 7 doses) was “No mortality occurred”.
